Key:
[1] = test system: primary cortical cultures (PCCs); assay: Lactate dehydrogenase (LDH) release rate analysis, H2O2-treated PCCs; format: cell-based, C57BL/6 mice; conditions: for LDH release rate of the PCCs treated with H2O2: compound 100 μM, 10^-4 mol/L H2O2, 24 hours, FIG. 1F; for concentration at which the LDH release rate of the PCCs is reduced most: tested 0.1, 1, 10 and 100 μM, FIG. 1G
Protocol: H2O2 can cause an oxidative damage to cells and a destruction of the cell membrane, and consequently the LDH is released into medium. For that reason, the lower rate of the LDH released into the culture medium is represented the fewer damaged cells and better cell protection effect of sample.
Test cells are primary cortical cultures (PCCs) in this example. The PCCs are prepared from cerebral cortexes of gestation day 17 embryos from C57BL/6 mice as described previously (Cell Death Differ 2008; 15: 143-151). The PCCs are maintained under serum-free conditions in neurobasal medium (Invitrogen), supplemented with B-27 supplement (2%; invitrogen), glutamine (0.5 mM; Sigma Aldrich), glutamate ([…]; Sigma Aldrich), penicillin (100 U/ml) and streptomycin ([…]; Invitrogen). At 4 days in vitro, half of the medium is removed and replaced with fresh medium without glutamate. The cultures are maintained in a humidified incubator at 37° C. with 5% CO2. At 7 days in vitro, the PCCs are used for experimentation.
The PCCs are seeded in a 24-well plate and are allowed to stand for 20 minutes. […] The PCCs are maintained at 37° C. in a humidified atmosphere of 5% CO2 for 24 hours. After incubation, the culture medium is collected and washed twice with phosphate buffered saline (PBS), and then are analyzed the LDH activity in the culture medium by using LDH Cytotoxicity Detection Kit (TaKaRa Bio Laboratories, Japan) to calculate the percentage cytotoxicity, which is represented the situation of cells damage, of the PCCs. The lower percentage cytotoxicity presents the lower LDH activity detected and less severe of cells damages, which indicates the better cell protection effect of the sample. The LDH activity is measured by a colorimetry. After a reaction between enzyme and particular substrate, an absorbance of the reaction solution and the LDH activity is linearly correlated. The LDH activity (U/10^−3 L) is calculated by a reduced optical density slope at a wavelength of 340 nm within three minutes. A lactate dehydrogenase activity unit is defined as a catalytic consumption of […] NADH per minute.

ischemic rats = assay: Volume of the infarction after cerebral ischemia, magnetic resonance imaging (MRI); format: in vivo, Sprague-Dawley (SD) rats; conditions: 30 mg/kg, 7 days after the injection, FIGS. 18A, 18B
Excerpt: The ischemic rats are induced by an ischemia-reperfusion model to simulate transient focal cerebral ischemia in rats. Test animals are male Sprague-Dawley (SD) rats weighing 250-300 g. The rats are anesthetized with chloral hydrate (0.4 g/kg IP) and subjected to cerebral ischemia. The ischemia-reperfusion model is induced by ligations of bilateral common carotid arteries (CCAs) and a right middle cerebral artery (MCA). The bilateral CCAs are clamped with non-traumatic arterial clips, and the right MCA is ligated with an 10-0 nylon suture. After 90 minutes ischemia, the suture on the MCA and the arterial clips on CCAs are removed to allow reperfusion. Core body temperature is monitored with a thermistor probe (Hewlett-Packard Model 21090A probe, Hewlett-Packard Company, Andover, Mass.), and maintained at 37° C. with a heating pad during anesthesia. After recovery from anesthesia, rat body temperature is maintained at 37° C. with a heat lamp.
Further, the ischemic rats are assigned into 5 groups, 4 test groups and 1 control group. The ischemic rats of the test groups are injected with 1 mg/kg of the Compound 1, 30 mg/kg of the genipin, 1 mg/kg of the Compound 1 and 100 mg/kg of 2-ME2, and 1 mg/kg of the Compound 1 and the LV-Bmi-1-sh, respectively. The ischemic rats of the control group are injected with the vehicle. At 7 days after the injection, the ischemic rats of the different groups are anesthetized, and the volume of the infarction thereof is assessed by a magnetic resonance imaging (MRI).

Compound | LDH release rate of the PCCs treated with H2O2 [1] | concentration at which the LDH release rate of the PCCs is reduced most [1] | area of the largest infarction (MRI) (ischemic rats) | volume of the infarction (MRI) (ischemic rats)
COC(=O)C1=CO[C@@H](O)[C@@H]2C(COC(=O)[C@H](Cc3ccccc3)NC(=O)OC(C)(C)C)=CC[C@H]12 [Compound 3] | lower LDH release rate | 100 µM |  | 
COC(=O)C1=CO[C@@H](OC(=O)[C@@H](N)Cc2ccccc2)[C@@H]2C(COC(=O)[C@@H](N)Cc3ccccc3)=CC[C@H]12 [Compound 15] | lower LDH release rate | 100 µM |  | 
COC(=O)C1=CO[C@@H](OC(=O)[C@@H](N)Cc2ccccc2)[C@@H]2C(CO)=CC[C@H]12 [Compound 16] |  | 100 µM |  | 
COC(=O)C1=CO[C@@H](O)[C@@H]2C(CO)=CC[C@H]12 [genipin, reference compound] |  |  | reduced | reduced
